The structures appear in SMILES notation.

The target of series [1] is T1, AChE (Homo sapiens, UniProt P22303).
T1 construct: purchased Sigma-Aldrich
The series can be described thus: AChE inhibition assay (Ellman-based kit). It is filed as biochemical. The following applies: concentration causing 30% inhibition. Here is the method: The inhibitory effect of test compounds on AChE activity was performed using an AChE inhibitor screening kit from Sigma-Aldrich. The kit is based on an improved Ellman method, whereby thiocholine produced from AChE activity forms a yellow color with 5,5’-dithiobis(2-nitrobenzoic acid), and the intensity the color (412 nm) is proportional to enzyme activity. […] IC30 was obtained by graphing the % inhibition of enzyme activity versus the logarithm of concentration of test compound using 5–7 tested concentrations.
On the technique in general: Ellman's reagent forms a yellow product with free thiols.

Series [2] deals with IL-6 secretion by HUVEC. Description: IL-1β-induced IL-6 secretion by HUVEC (ELISA). The format is cell-based. The following applies: Homo sapiens, 30 min compound, then 5 ng/ml IL-1β, 24 h. Here is the method: (§1) FLS, HUVEC, SW982, and THP-1 cells were plated in 96 well plates (10^4 to 10^5 cells/well) for 48 h before treatment. At 2 days post-confluency, the cells were serum-starved and washed twice (with the exception of THP-1 cell, which were not washed) with FBS-free medium prior to the addition of test compounds. The cells were incubated in the presence or absence of test compounds or DMSO (vehicle control) for 30 min at 37°C in a 5% CO2 atmosphere, IL-1β (5 ng/ml) was added, and the cells were incubated for an additional 24 h. Culture supernatants were collected and stored at –80°C. The levels of MMP-1 and MMP-3 were determined in culture supernatants using commercially available ELISA kits according to the manufacturer’s instructions (R&D System, Minneapolis, MN, USA). IL-6 levels were also determined in the supernatants using a human IL-6 ELISA kit (BD Biosciences, San Jose, CA, USA).
A general note: In an ELISA, binding on a coated surface is turned into a signal by an enzyme label.

The test system of series [3] is CII-specific Abs in CIA mice. The series can be described thus: Anti-CII antibody ELISA in serum of CIA mice. The following applies: 30 mg/kg i.p. daily, day 8 to 42, vs saline. The format is in vivo. The method, then: Serum samples from mice with CIA were collected on day 44 after CII injection. Samples of the diluted sera were added to microtiter plates (Greiner Bio-One, Monroe, NC, USA) coated with 2 μg/ml ELISA grade mouse CII (Chondrex). Horseradish peroxidase-conjugated goat […] total IgG, IgG1, IgG2a, IgG2b, and IgG3 (Southern Biotechnology Associates, Birmingham, AL, USA) were used for detection. The samples were developed with 2,2’-azino-bis(3-ethylbenzothiazoline-6-sulphonic acid (Moss Inc., Pasadena, MD, USA), and absorbance was monitored at 415 nm using a SpectraMax Plus microplate reader. Endpoint titer represents reciprocal log 2 for the serum dilution with absorbance ≥ 0.1 above negative control.

Series [4] deals with MMP-1 secretion by FLS. Description: IL-1β-induced MMP-1 secretion by FLS (ELISA). It is filed as cell-based. The following applies: Homo sapiens; 30 min compound, then 5 ng/ml IL-1β, 24 h. From the text:
This study was approved by the Institutional Review Board of University of California, San Diego School of Medicine (La Jolla, CA, USA). Informed consent was obtained from all participants. Anonymous synovial tissue samples were obtained from six patients with RA at the time of total joint replacement (5 females, 1 male; age range, 44–72 years), as previously described ([Alvaro-Gracia et al., 1990]). The diagnosis of RA conformed to American College of Rheumatology 1987 revised criteria ([Arnett et al., 1988]). The synovium was minced and incubated with collagenase type VIII (0.5 mg/ml) (Sigma-Aldrich) in serum-free RPMI-1640 (Life Technologies, Grand Island, NY, USA) for 2 h at 37°C, filtered, extensively washed, and cultured in DMEM (Life Technologies) supplemented with 10% FBS (Gemini Bio Products, Calabasas, CA, USA), penicillin, streptomycin, gentamicin, and glutamine in a humidified 5% CO2 atmosphere. […]
FLS, HUVEC, SW982, and THP-1 cells were plated in 96 well plates (10^4 to 10^5 cells/well) for 48 h before treatment. […] The levels of MMP-1 and MMP-3 were determined in culture supernatants using commercially available ELISA kits according to the manufacturer’s instructions (R&D System, Minneapolis, MN, USA). IL-6 levels were also determined in the supernatants using a human IL-6 ELISA kit (BD Biosciences, San Jose, CA, USA).

Series [5] is described as follows: Cytotoxicity assay (CellTiter-Glo), SW982. The following applies: human, SW982 cells; concentrations up to 50 µM; read-out: Cytotoxic effect SW982 IC50. It is filed as cell-based. Here is the method:
(§2) Cytotoxicity was analyzed using a CellTiter-Glo Luminescent Cell Viability Assay Kit (Promega), according to the manufacturer’s protocol. Briefly, cells were cultured at a density of 10^4 to 10^5 cells/well with different concentrations of test compounds (final concentration of DMSO was 1%) for the indicated periods of time (2, 12, or 24 h) at 37°C and 5% CO2. Following treatment, substrate was added to the cells, and the samples were analyzed with a Fluoroscan Ascent FL microplate reader.

The subject of series [6] is MMP-1 secretion by SW982 cells. Description: IL-1β-induced MMP-1 secretion by SW982 cells (ELISA). The format is cell-based. The following applies: Homo sapiens, 30 min compound, then 5 ng/ml IL-1β, 24 h, read-out: SW-982 MMP-1 IC50. The method, then: as §1
Series [7] has as its system MMP3 gene expression in FLS. Description: MMP3 gene expression in IL-1β-stimulated FLS (qPCR). The format is cell-based, human. The following applies: 4, 10, 25 µM, 1 h before IL-1β (2 ng/ml) for 6 h, vs vehicle. The method, then:
For MMP mRNA analysis, FLS were plated in six-well plates, cultured until 80% confluence, and subsequently serum starved (1% FBS/DMEM) for 24 h. […] The mRNA was isolated and reverse transcribed to obtain cDNA. Quantitative real-time polymerase chain reaction was performed using primer probe sets for MMP3 and glyceraldehyde 3-phosphate dehydrogenase (GAPDH) (Life Technologies). Threshold cycle values were obtained and normalized to GAPDH expression.
In general terms: In qPCR the cycle at which signal appears reflects the starting amount.

Series [8] can be described thus: Cytotoxicity assay (CellTiter-Glo), THP-1. The format is cell-based. The following applies: human, THP-1 cells; concentrations up to 50 µM; read-out: Cytotoxic effect THP-1 IC50. Here is the method:
as §2

The target in series [9] is JNK1. Further details: method as in Schepetkin et al., 2019. The following applies: previously reported binding affinity; ref Schepetkin et al., 2019; cited from earlier work.
The test system of series [10] is IL-6 secretion by synovial SW982 cells. The series can be described thus: IL-1β-induced IL-6 secretion by SW982 cells (ELISA). The format is cell-based, human. The following applies: for IC50: Homo sapiens, SW982, 30 min compound, then 5 ng/ml IL-1β, 24 h, read-out: SW982 IL-6 IC50. Here is the method: as §1, with “The cells were incubated in the presence or absence of test compounds or DMSO (vehicle control) for 30 min at 37°C in a 5% CO2 atmosphere, IL-1β (5 ng/ml) was added, and the cells were incubated for an additional 24 h.” left out

T1 sequence (P22303 32-614): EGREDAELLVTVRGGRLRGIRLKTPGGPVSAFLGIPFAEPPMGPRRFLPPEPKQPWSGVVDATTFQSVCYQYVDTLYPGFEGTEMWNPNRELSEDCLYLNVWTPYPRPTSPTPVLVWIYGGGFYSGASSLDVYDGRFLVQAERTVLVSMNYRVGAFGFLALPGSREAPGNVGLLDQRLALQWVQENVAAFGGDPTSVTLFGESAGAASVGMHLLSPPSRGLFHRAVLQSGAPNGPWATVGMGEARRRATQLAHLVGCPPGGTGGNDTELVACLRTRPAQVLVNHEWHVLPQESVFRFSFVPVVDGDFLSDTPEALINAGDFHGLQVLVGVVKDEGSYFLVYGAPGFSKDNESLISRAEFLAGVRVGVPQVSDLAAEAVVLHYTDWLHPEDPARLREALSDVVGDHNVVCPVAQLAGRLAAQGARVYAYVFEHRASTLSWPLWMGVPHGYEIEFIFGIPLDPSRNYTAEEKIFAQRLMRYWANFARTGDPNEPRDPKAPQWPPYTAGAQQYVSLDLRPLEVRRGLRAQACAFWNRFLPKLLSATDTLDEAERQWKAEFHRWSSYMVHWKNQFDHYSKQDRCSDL

With `O=C1c2ccccc2-n2c1nc1ccccc1c2=O` [TRYP, indolo[2,1-b]quinazolin-6,12-dione], the “AChE inhibition IC30” value in series [1] is 4.2 ± 1.2 µM. The IC50 in series [2] came out at 6.4 ± 2.7 µM; in series [4] it was 1.2 ± 0.4 µM; in [5], 19.1 ± 4.9 µM; in [6], 7.8 ± 2 µM; in series [8] it was 18.2 ± 2.3 µM; in series [10], 2.5 ± 1.1 µM. Also, the “titers of CII-specific IgG, IgG1, IgG2a, IgG2b, IgG3” value in series [3] is listed as “significantly lower”. In addition, the “MMP3 mRNA levels” value in series [7] is “dose-dependent reduction”. For the same molecule, in series [9], the Kd is 23 µM. The “overall inhibition of IL-6 secretion in combination with SP600125” value in series [10] (5 µM TRYP plus SP600125, compared to SP600125 alone) is reported as “acted synergistically”.

In the case of `O=c1c2ccccc2nc2n1-c1ccccc1/C2=N/O` [TRYP-Ox, tryptanthrin-6-oxime], the “AChE inhibition IC30” value in series [1] came to 12.0 ± 3.9 µM. Moreover, the half-maximal inhibitory concentration (IC50) in series [2] was 0.9 ± 0.3 µM; in [4], 0.7 ± 0.1 µM; in [5] it was above 50 µM; in series [6], 2.6 ± 0.8 µM; in series [8] it was above 50 µM; in series [10], 0.4 ± 0.2 µM. The “titers of CII-specific IgG, IgG1, IgG2a, IgG2b, IgG3” value in [3] is on record as “significantly lower”. Besides, in [7], the “MMP3 mRNA levels” value was “dose-dependent reduction”.

The term IC50 denotes the midpoint of a concentration-inhibition curve. As a reminder, the Kd is the concentration at which binding is half-saturated.

These data come from publication PMC7394103 (Frontiers in Pharmacology, 2020).
